A short description of data set [1]: Exchange rate constants (omega plot). Conditions: 10 mM complex; for kex: 20 mM HEPES pH 7.4, 100 mM NaCl, B1 8-24 μT, presat 4 s, 37° C., 11.7 T. The method, then:
Exchange rate constants were calculated following a previously reported procedure. Measurements of on-resonance (Mz) and off-resonance (Mo) were acquired at different presaturation pulse powers between 350-1000 Hz (8-24 μT) applied for 4 seconds at 37° C. The exchange rate constant (kex) is calculated from the x-intercept from the plot of Mz/(Mo−Mz) against 1/ω1^2 (ω1 in rad/s). The rate constant, kex, is converted into units of s^−1. Samples contained 10 mM Co^II complex, 20 mM HEPES pH 7.4, and 100 mM NaCl.
The exchange rate constants were calculated by using a previously reported procedure. The magnetization of the on-resonance (Mz) and off-resonance (Mo) were acquired at different pre-saturation pulse powers between 350-1090 Hz applied for 4 seconds. To calculate the exchange rate constant (kb), the x-intercept (−1/kb^2) was obtained from the plot of Mz/(Mo−Mz) against 1/ω1^2 (ω1 in rad/s). Samples contained 16 mM [Co(TPT)]Cl2, 200 mM NaCl, and 40 mM MES or HEPES at pH 6.4-7.5. Measurements were carried out at 37° C.

The nature of data set [2]: Displacement of Co^II by Cu^II monitored by UV-vis. The data set is classed as physicochemical. Conditions: 10-fold excess of Cu^II. The method, then: Samples contained 200 μM Co^II complex, 10 mM MES buffer pH 5.5 and 1, 4, or 10 equivalents of CuCl2. The formation of the Cu^II complexes was monitored at 264 nm, 286 nm, 312 nm and 310 nm for [Cu(TCMT)]^2+, [Cu(NOPE)]^2+, [Cu(TCMC)]^2+, and [Cu(CCRM)]^2+, respectively. A previously reported procedure was followed.

Consider `NC(=O)CN1CCCN(CC(N)=O)CCN(CC(N)=O)CCCN(CC(N)=O)CC1.[Co+2]` [[Co(CCRM)]^2+], for which, in data set [1] (peak at 95 ppm, pH 7.4, 37° C.), the “kex, peak at 95 ppm” value was determined as 910 s⁻¹. Besides, the “kex, peak at 112 ppm” value in data set [1] (peak at 112 ppm, pH 7.4, 37° C.) amounted to 510 s⁻¹. Moreover, in data set [2], the “dissociation with competing Cu^II (in words)” value is on record as “dissociating completely within one hour”.
`NC(=O)CN1CCOCCOCCN(CC(N)=O)CCOCC1.[Co+2]` [[Co(NOPE)]^2+] yielded a kex in data set [1] of 240 s⁻¹. The “dissociation with competing Cu^II (in words)” value in data set [2] was “dissociating completely within one hour”.
The corresponding values for `NC(=O)CN1CCN(CC(N)=O)CCN(CC(N)=O)CCN(CC(N)=O)CC1.[Co+2]` [[Co(TCMC)]^2+] are 300 s⁻¹ and “inert to dissociation”.
In data set [1], `NC(=O)CN1CCN(CC(N)=O)CCN(CC(N)=O)CC1.[Co+2]` [[Co(TCMT)]^2+] gave a kex of 890 s⁻¹. Further, in data set [2] (over 4 hours), the “dissociation with competing Cu^II” value is on record as approximately 15%.
